Assay results as given in US12370265B2, “Hydrogel for in-vivo release of medication” (UMC Utrecht Holding B.V., priority 2019, dated 2025).

Experiments:
[1] = Directional release from hydrogel coated with PCL on one side, in 3% alginate gel; format: physicochemical
Procedure: Release of methylene blue from the hydrogel was simulated in a 3% alginate gel, cross-linked with calcium chloride to obtain a tissue-like consistency. Only the top part of the hydrogel was coated with PCL. The samples were inspected at 0, 1, 2, and 3 hours. Hydrogels were positioned vertically to eliminate any effect of gravity on the direction of release. […] The same experiment was performed with bupivacaine.

[2] = local anaesthetic; cited from earlier work

CCCCN1CCCCC1C(=O)Nc1c(C)cccc1C (stereo not drawn) [bupivacaine]
cumulative release ([1]; from the PCL-covered direction, after 8 hours): about 2 mg
time to reach cumulative release of about 2 mg ([1]; non-PCL covered direction): ≤ 1 h
duration of its effect [2]: approx. 8 hours
